Active and inactive are the calls of the source. The rule behind the calls is not given here.
Legend:
[1] = Cytotoxicity against human MT4 cells assessed as decrease in cell viability after 5 days by MTT assay; format: cell-based
[2] = Inhibition of recombinant wild type HIV1 reverse transcriptase using poly (A).oligo (dT)15 as template/primer assessed as decrease in biotin-dUTP incorporation after 1 hr by ELISA; set-up: species or system Human immunodeficiency virus 1
[3] = test system: Human immunodeficiency virus 1; assay: Antiviral activity against HIV1 expressing reverse transcriptase E138K mutant infected in human MT4 cells assessed as protection against virus-induced cytopathic effect after 5 days by MTT assay; format: functional, cell-based; conditions: Human immunodeficiency virus 1, MT4, 120 h
in vitro [4] = conditions: human, MT4 cells
Description: Selectivity index, ratio of CC50 for human MT4 cells to EC50 for HIV1 expressing reverse transcriptase K103N mutant

[5] = test system: Human immunodeficiency virus 1; format: functional, cell-based; conditions: Human immunodeficiency virus 1, MT4, 120 h
[6] = test system: Human immunodeficiency virus 1; format: functional, cell-based; conditions: Human immunodeficiency virus 1, MT4, 120 h; remark: listed apart in the source
in vitro [7] = conditions: human, MT4 cells; remark: listed apart in the source
Description: Selectivity index, ratio of CC50 for human MT4 cells to EC50 for HIV1 expressing reverse transcriptase L100I mutant

[8] = test system: Human immunodeficiency virus 1; assay: Antiviral activity against HIV1 RES056 expressing reverse transcriptase mutant infected in human MT4 cells assessed as protection against virus-induced cytopathic effect after 5 days by MTT assay; format: functional, cell-based; conditions: Human immunodeficiency virus 1, RES056, MT4, 120 h
[9] = test system: Human immunodeficiency virus 1; assay: microbe, parasite or virus in culture; conditions: Human immunodeficiency virus 1, 3B, MT4, 120 h
Description: Antiviral activity against HIV1 3B expressing wild type reverse transcriptase infected in human MT4 cells assessed as protection against virus-induced cytopathic effect after 5 days by MTT assay

in vitro [10] = conditions: human, MT4 cells; remark: listed apart in the source
Description: Selectivity index, ratio of CC50 for human MT4 cells to EC50 for HIV1 expressing reverse transcriptase F227L/V106A double mutant

[11] = test system: Human immunodeficiency virus 2; assay: Antiviral activity against HIV2 ROD infected in human MT4 cells assessed as protection against virus-induced cytopathic effect after 5 days by MTT assay; format: functional, cell-based; conditions: ISOLATE ROD
in vitro [12] = conditions: human, MT4 cells; remark: listed apart in the source
Description: Selectivity index, ratio of CC50 for human MT4 cells to EC50 for HIV1 RES056 expressing reverse transcriptase mutant

in vitro [13] = conditions: human, MT4 cells; remark: listed apart in the source
Description: Selectivity index, ratio of CC50 for human MT4 cells to EC50 for HIV1 3B expressing wild type reverse transcriptase

[14] = test system: Human immunodeficiency virus 1; format: functional, cell-based; conditions: Human immunodeficiency virus 1, MT4, 120 h; remark: listed apart in the source
in vitro [15] = conditions: human, MT4 cells; remark: listed apart in the source
Description: Selectivity index, ratio of CC50 for human MT4 cells to EC50 for HIV1 expressing reverse transcriptase Y188L mutant

in vitro [16] = conditions: human, MT4 cells; remark: listed apart in the source
Description: Selectivity index, ratio of CC50 for human MT4 cells to EC50 for HIV1 expressing reverse transcriptase E138K mutant

[17] = test system: Human immunodeficiency virus 1; assay: microbe, parasite or virus in culture; conditions: Human immunodeficiency virus 1, MT4, 120 h
Description: Antiviral activity against HIV1 expressing reverse transcriptase L100I mutant infected in human MT4 cells assessed as protection against virus-induced cytopathic effect after 5 days by MTT assay

in vitro [18] = conditions: human, MT4 cells; remark: listed apart in the source
Description: Selectivity index, ratio of CC50 for human MT4 cells to EC50 for HIV1 expressing reverse transcriptase Y181C mutant

[19] = test system: Human immunodeficiency virus 1; assay: Antiviral activity against HIV1 expressing reverse transcriptase K103N mutant infected in human MT4 cells assessed as protection against virus-induced cytopathic effect after 5 days by MTT assay; format: functional, cell-based; conditions: Human immunodeficiency virus 1, MT4, 120 h
[20] = test system: Human immunodeficiency virus 1; assay: Potency index, ratio of nevirapine EC50 to test compound EC50 for HIV1 3B expressing wild type reverse transcriptase; format: functional
[21] = test system: Human immunodeficiency virus 1; assay: Resistance ratio of EC50 for HIV1 expressing reverse transcriptase K103N mutant to EC50 for HIV1 3B expressing wild type reverse transcriptase; format: functional
[22] = test system: Human immunodeficiency virus 1; assay: Resistance ratio of EC50 for HIV1 expressing reverse transcriptase L100I mutant to EC50 for HIV1 3B expressing wild type reverse transcriptase; format: functional
[23] = test system: Human immunodeficiency virus 1; assay: Potency index, ratio of delavirdine EC50 to test compound EC50 for HIV1 3B expressing wild type reverse transcriptase; format: functional

SMILES: CCOC(=O)CCN1CCC(CNC(=O)c2[nH]c3ccc(Cl)cc3c2S(=O)(=O)c2cc(C)cc(C)c2)CC1
- CC50 at 120 h [1]: 19200 nM
- IC50 [2]: 10100 nM

SMILES: Cc1cc(C)cc(S(=O)(=O)c2c(C(=O)NCC3CCN(CCO)CC3)[nH]c3ccc(Cl)cc23)c1
- EC50 [3]: 300 nM
- selectivity ratio (in vitro [4]): 21
- EC50 [5]: > 6700 nM
- EC50 [6]: 620 nM
- selectivity ratio (in vitro [7]): 59
- EC50 [8]: > 6700 nM
- EC50 [9]: 32 nM
- selectivity ratio (in vitro [10]): 11
- Activity [11]: inactive
- selectivity ratio (in vitro [12]): < 1
- selectivity ratio (in vitro [13]): 205
- EC50 [14]: 560 nM
- selectivity ratio (in vitro [15]): < 1
- selectivity ratio (in vitro [16]): 22
- EC50 [17]: 110 nM
- selectivity ratio (in vitro [18]): 12
- EC50 [19]: 320 nM
- CC50 at 120 h [1]: 6700 nM

SMILES: O=C1Nc2ccc(Cl)cc2[C@@](C#CC2CC2)(C(F)(F)F)O1 [EFAVIRENZ]
- EC50 [5]: 92 nM
- EC50 [6]: 76 nM
- EC50 [8]: 110 nM
- EC50 [14]: 5 nM
- EC50 [19]: 98 nM
- CC50 at 120 h [1]: > 6300 nM

SMILES: CC(C)Nc1cccnc1N1CCN(C(=O)c2cc3cc(NS(C)(=O)=O)ccc3[nH]2)CC1 [DELAVIRDINE]
- EC50 [3]: 70 nM
- selectivity ratio (in vitro [4]): 18
- EC50 [5]: 550 nM
- EC50 [6]: 2600 nM
- selectivity ratio (in vitro [7]): 13
- EC50 [8]: ≥ 37000 nM
- EC50 [9]: 24 nM
- selectivity ratio (in vitro [10]): 17
- selectivity ratio (in vitro [13]): 1880
- EC50 [14]: 1900 nM
- selectivity ratio (in vitro [15]): 81
- selectivity ratio (in vitro [16]): 634
- EC50 [17]: 3500 nM
- selectivity ratio (in vitro [18]): 23
- EC50 [19]: 2500 nM
- CC50 at 120 h [1]: > 43800 nM

SMILES: Cc1cc(C#N)cc(C)c1Oc1nc(Nc2ccc(C#N)cc2)nc(N)c1Br [ETRAVIRINE]
- EC50 [3]: 11 nM
- EC50 [5]: 15 nM
- EC50 [8]: 34 nM
- EC50 [14]: 14 nM
- EC50 [17]: 9 nM
- IC50 [2]: 1100 nM

SMILES: Cc1ccnc2c1NC(=O)c1cccnc1N2C1CC1 [NEVIRAPINE]
- EC50 [3]: 160 nM
- EC50 [5]: 4400 nM
- EC50 [6]: 3500 nM
- EC50 [8]: 2200 nM
- EC50 [14]: 3800 nM
- EC50 [19]: 3600 nM
- CC50 at 120 h [1]: > 15000 nM
- IC50 [2]: 2800 nM

SMILES: Cc1cc(C)cc(S(=O)(=O)c2c(C(=O)NC3CCN(CCO)CC3)[nH]c3ccc(Br)cc23)c1
- EC50 [3]: 140 nM
- selectivity ratio (in vitro [4]): 74
- EC50 [5]: > 6300 nM
- EC50 [6]: 220 nM
- selectivity ratio (in vitro [7]): 368
- EC50 [8]: > 6300 nM
- EC50 [9]: 6 nM
- selectivity ratio (in vitro [10]): 28
- Activity [11]: inactive
- Ratio EC50 [20]: 20
- selectivity ratio (in vitro [12]): < 1
- selectivity ratio (in vitro [13]): 1000
- EC50 [14]: 130 nM
- selectivity ratio (in vitro [15]): < 1
- selectivity ratio (in vitro [16]): 46
- EC50 [17]: 17 nM
- Ratio EC50 [21]: 14
- selectivity ratio (in vitro [18]): 48
- EC50 [19]: 84 nM
- CC50 at 120 h [1]: 6300 nM
- Ratio EC50 [22]: 2.8
- Ratio EC50 [23]: 4

Reference: ChEMBL document CHEMBL4002552, “Discovery of novel piperidine-substituted indolylarylsulfones as potent HIV NNRTIs via structure-guided scaffold morphing and fragment rearrangement” (Eur J Med Chem, 2017)
